“And” between values parts separate entries of the source, which are not always exact repeats. Equal entries are not always repeated. Where two headings read alike, the source gives them in different places.
Experiments:
[1] = test system: Oct4, Sox2 and Nanog expression in embryoid-like cell bodies of CD34+ mouse fibroblasts; assay: qPCR of pluripotent gene expression in embryoid-like bodies of mouse tail fibroblasts; format: cell-based; settings: for Oct4, Sox2 and Nanog expression (qPCR, FIG. 5): embryoid-like cell bodies of CD34+ mouse fibroblasts; for Oct4, Sox2 and Nanog expression (qPCR, FIG. 5) / Oct4, Sox2 and Nanog expression (qPCR, FIG. 4): vs untreated bodies and monolayer; for Oct4, Sox2 and Nanog expression (qPCR, FIG. 4): embryoid-like cell bodies treated with 5 μm
Protocol: Materials required: Culture medium, supplemented with 10% FBS, 1% PS in DMEM (Invitrogen); Mouse ESC medium, supplemented with 1×B27 (Invitrogen), 1,000 U/mL Mouse Leukemia Inhibitory Factor (LIF) in DMEM/F12 culture medium (Invitrogen); Programin (frozen stock dissolved in DMSO); Working concentration=1-5 μM; Sterile 35 mm non-adhesive culture dish (SPL; 11035).
1. Source mouse tail fibroblasts (passage 2-6 and in log phase of growth). Trypsinize the fibroblasts using standard protocols to obtain a suspension of the cells in culture medium.
2. Seed the fibroblasts or other somatic cells onto a sterile 35 mm non-adhesive culture dish at density of 1×10^5-1×10^6 cells/cm^2 in 3 mL of culture medium.
4. Gently pipette the culture media to prevent the cells from adhering to culture dish surface. Two sessions per day, 2 min for each session, must be performed. A standard 1 mL pipette and plastic tip was used for pipetting the cultures. The pipetting has to done very slowly (approximately 0.5-1 mL/second generates sufficient force to detach cells from non-adhesive culture dish surface).
1. The cells would start to aggregate into embryoid-like bodies after day 1. These bodies will grow in numbers and size during the period of culture.
2. Gently pipette the culture media to prevent the embryoid-like cell bodies from attaching on culture dish surface.
3. Add 1 mL of fresh culture medium.
1. Collect cell suspension and pellet cells by centrifugation at 800 rpm for 5 min. […] Wash cell once with mouse ESC medium and Programin (1-5 μM) or programin derivatives.
2. Pellet the embryoid-like bodies again and re-suspend them in 3 mL mouse ESC medium and Programin or derivatives thereof.
3. Seed the embryoid-like cell bodies onto a sterile 35 mm non-adhesive culture dish.
4. Perform daily pipetting twice in a day to prevent the embryoid-like cell bodies from sticking to the culture dish.
5. Add 1 mL of fresh mouse ESC medium on day 5 (day 2 post-Programin treatment).
2. Harvest the embryoid-like cell bodies for qPCR analysis to validate expression of pluripotent genes: Oct4, Sox2 and Nanog expression. In addition, expression of other key stem cell-associated genes.

[2] = test system: CD34+ fibroblasts grown on adhesive culture dishes; settings: 5 μM for 3 days
Excerpt: Tail fibroblasts extracted from the tail of Oct4-EGFP transgenic mice and stained with CD34 (FIG. 2). The cells were sorted by flow cytometry for only those expressing the surface marker CD34.

[3] = test system: Programin-treated embryoid-like cell bodies
Protocol: Programin-treated embryoid-like cell bodies (1×10^6 cells/10 cm^2) were maintained as a suspension culture in DMEM/F12, 1000 U/mL LIF and 1×B27 on non-adhesive culture dishes for 4 days. The embryoid-like cell bodies were then transferred to culture dishes coated with 0.1% gelatin (FIG. 9A). 10 μM Wnt agonist (Cat #681665, Calbiochem) was added to the culture medium (DMEM/F12, 1000U/mL LIF and 1×B27).

[4] = test system: Oct4-EGFP expression in CD34+ fibroblasts from the tail of an Oct4-EGFP transgenic mouse; settings: embryoid-like cell bodies, 5 μM, 24, 48 and 69 hours
Excerpt: 1. Harvest the embryoid-like cell bodies for PI and Hoechst staining for confocal analysis. The presence of green fluorescence and Hoechst staining in cells indicate the presence of live PIP cells expressing Oct4-EGFP.
CD34^+ fibroblasts harvested from the tail of an Oct4-EGFP transgenic mouse were mechanically pipetted and maintained on non-adhesive culture plates so that the cells became aggregated to form embryoid-like bodies (FIG. 3A). The embryoid-like bodies in this study were stained with PI dye to determine the presence of dead cells (red arrows) and Hoechst dye for the presence of live cells (blue arrows) (FIGS. 3A-3D).

[5] = test system: Oct4, Sox2, KLF4, c-Myc and Nanog expression in HUCPV cells; settings: HUCPV cells as a monolayer, 0-5 μM for 30 hours
[6] = test system: Oct4, Nanog, Sox2, c-Myc and KLF4 expression in human skin fibroblasts; settings: 5 μM, 4 days
Protocol: Materials required: Fibroblast medium, supplemented with 15% FBS, 1% non-essential amino acids, 1% PS in Eagle's MEM medium (Invitrogen), human ESC medium, supplemented with 20% knockout serum replacement (Invitrogen), 2 mM L-glutamine, 0.1 mM non-essential amino acids, 0.1 mM mercaptoethanol, 10 ng/mL fibroblast growth factor-basic (bFGF), 1% PS in DMEM/F12 (Invitrogen), Programin or derivatives thereof (frozen stock dissolved in DMSO); Working concentration=5 μM, and sterile 35 mm non-adhesive culture dish (SPL; 11035).
Primary human skin fibroblasts were cultured in fibroblast medium and passaged by trypsinization. Passage 5 fibroblasts were used for experimentation.
After dissociating the cultures into single cells with trypsin, 2×10^6 cells were resuspended in 3 mL fibroblast medium in non-adhesive 35 mm dish and maintained in 37° C. incubator with 5% CO2.
Several hours later, aggregates were formed. Gently breakup excessively large aggregates by pipetting.
The next day, compact aggregates were formed. Again gentry breakup aggregates into smaller size (100-120 μm diameter) by pipetting.
Three days after cell aggregate/embryoid-like cell body formation, change the medium to human ESC medium supplemented with 5 μM Programin or derivatives thereof.
Replenish medium with fresh Programin or derivatives thereof 2 days after. […]

[7] = test system: Oct4, Sox2, KLF4, c-Myc and Nanog expression in HUCPV cells; settings: HUCPV embryoid-like bodies
Protocol: Materials required: HUCPV medium, consisting of 15% ESQ-FBS (Invitrogen) and 1% PS in MEM/F12 (Invitrogen), Essential 6 (Invitrogen) supplemented with 100 ng/mL basic fibroblast growth factor (bFGF) (Invitrogen), Programin or derivatives thereof (frozen stock dissolved in DMSO); Working concentration=1-5 μM; Sterile non-adhesive 24-well culture plate (SPL; 32024).
Primary human umbilical cord peri-vascular (HUCPV) cells were maintained in HUCPV culture medium and passaged by trypsinization. Only HUCPV cells below cell passage 6 were used.
HUCPV cultures are trypsinize and dissociate into single cells.
The dissociated HUCPV cells are re-suspend as 3×10^5 cells in 600 μL of HUCPV medium and seeded into each well of a non-adhesive 24-well culture plate.
The cells are incubated at 37° C. and 5% CO2 inside a cell incubator.
On following day, until the end of experiment, the cells were pipetted twice a day to prevent cells attaching onto culture plates which caused the HUCPV cells to aggregate into embryoid-like cell bodies.
200 μL of fresh HUCPV medium were added to the cultures, every 2 days. […]
Thirty hours after Programin treatment, the Programin treated embryoid-like cell bodies were harvested for qPCR analysis to validate expression of the pluripotent genes: Oct4, Sox2 and Nanog. Other key stem cells-associate genes were also analyzed.

[8] = test system: Programin treated embryoid-like cell bodies; settings: treated embryoid-like bodies on 0.1% gelatin, B27 medium, after 3 days, more obvious after 7 days
Excerpt: Programin treated embryoid-like cell bodies (1×10^6 cells/10 cm^2) were maintained as a suspension culture in DMEM/F12, 1000U/mL LIF and 1×B27 on non-adhesive culture dishes for 4 days. The embryoid-like cell bodies were then transferred to culture dishes coated with 0.1% gelatin (FIG. 10A).

Question: With `Oc1ncnc2[nH]ncc12` [Derivative 237] as the molecule, how does the “Oct4, Sox2 and Nanog expression (qPCR, FIG. 5)” value (“Oct4 … (qPCR, FIG. 5)” for short) [1] read?
Answer: significantly increased

Question: With `S=c1[nH]cnc2nc[nH]c12` [Derivative 594] as the molecule, how does the “Oct4 … (qPCR, FIG. 5)” value [1] read?
Answer: significantly increased

Question: `Clc1nc(-n2cccn2)c2nc[nH]c2n1` [Derivative 958] was tested. Which “Oct4 … (qPCR, FIG. 5)” value [1] did it give?
Answer: significantly increased

Question: With `Clc1nc(N2CCN(c3ccccc3)CC2)c2[nH]cnc2n1` [Derivative 957] as the molecule, how does the “Oct4 … (qPCR, FIG. 5)” value [1] read?
Answer: significantly increased

Question: For `Nc1nc2nc[nH]c2c(=S)[nH]1` [Derivative 400], which “Oct4 … (qPCR, FIG. 5)” value [1] is on record?
Answer: significantly increased

Question: With `c1nc2nc(Nc3ccc(N4CCOCC4)cc3)nc(NC3CCCCC3)c2[nH]1` [programin, 2-(4-Morpholinoanilino)-6-cyclohexylamino-purine] as the molecule, how does the Oct4 expression [2] read?
Answer: did not express Oct4

Question: What about the cell survival [2] of the same molecule?
Answer: died

Question: What about the “fate of treated cells that were not aggregated” value ([3]; following exposure to the Wnt agonist) of the same molecule?
Answer: underwent cell death

Question: And the “formation of bone-like nodules” value ([3]; treated embryoid-like bodies on 0.1% gelatin with 10 μM Wnt agonist, after 2-3 days)?
Answer: Bone-like nodules were evident

Question: And the “Alizen Red s staining of the nodules” value ([3]; treated embryoid-like bodies with 10 μM Wnt agonist)?
Answer: osteocytes

Question: What about the “Oct4-EGFP expression (confocal microscope)” value [4] of the same molecule?
Answer: detectable

Question: What about the “Oct4-EGFP expression (confocal microscope)” value ([4]; listed as Programin) of the same molecule?
Answer: expressed Oct4-EGFP

Question: And the “Oct4, Sox2, KLF4, c-Myc and Nanog expression (qPCR)” value [5]?
Answer: did not activate

Question: And the “expression of Oct4, Nanog, Sox2, c-Myc and KLF4 (qPCR)” value ([6]; human skin fibroblast embryoid-like bodies, vs vehicle and monolayer)?
Answer: higher levels

Question: What about the “expression of pluripotency-associated genes Oct4, Sox2, Nanog, KLF4 and c-Myc” value ([6]; human skin fibroblasts in a monolayer) of the same molecule?
Answer: not in a monolayer

Question: And the “Oct4, Sox2, KLF4, c-Myc and Nanog expression (qPCR)” value ([7]; 1-5 μM for 30 hours, vs untreated embryoid-like body controls (0 μM))?
Answer: significantly enhanced

Question: And the “concentration that induced the highest level of Oct4, Sox2, Klf4 and Nanog” value ([7]; 30 hours, 1-5 μM tested)?
Answer: 4 µM

Question: What about the formation of neurons [8] of the same molecule?
Answer: Neurons were evident

Question: What about the “increase in Oct4, Sox2 and Nanog expression” value ([1]; aggregates/embryoid-like bodies of fibroblasts, compared to controls (unaggregated, untreated cells)) of the same molecule?
Answer: 25-200 fold and 20-200 fold

Question: What about the “increase in expression of E-cadherin” value ([1]; compared to that of the initial fibroblast) of the same molecule?
Answer: 5 fold

Question: What about the “increase in Oct4, Sox2 and Nanog expression” value ([1]; embryoid-like cell bodies exposed to 2-5 μM for 30 hours, compared to an untreated control fibroblast) of the same molecule?
Answer: 25-200 fold

Question: And the “Oct4 … (qPCR, FIG. 5)” value [1]?
Answer: higher

Question: And the “Oct4, Sox2 and Nanog expression (qPCR, FIG. 4)” value [1]?
Answer: highest

Question: What about the “Oct4, Sox2 and Nanog expression (qPCR, FIG. 4)” value ([1]; listed as Programin) of the same molecule?
Answer: significantly enhanced

Question: What about the reprogramming efficiency ([1]; mouse somatic cells, takes 7 days to accomplish) of the same molecule?
Answer: approximately 20%

Question: For `Nc1ncnc2nc[nH]c12` [Derivative 668], which “Oct4 … (qPCR, FIG. 5)” value [1] is on record?
Answer: significantly increased

Question: With `Cc1cc(C)n(-c2nc(Cl)nc3[nH]cnc23)n1` [Derivative 959] as the molecule, how does the “Oct4 … (qPCR, FIG. 5)” value [1] read?
Answer: significantly increased
